From paper PMC11475408, “All‐Inorganic Polyoxometalates Act as Superchaotropic Membrane Carriers” (Advanced Materials (Deerfield Beach, Fla.), 2023)

Experiments:
[1] = system: methicillin-resistant Staphylococcus aureus (SR3605, ATCC43300); conditions: in combination with β-Lactamase; Mueller-Hinton broth, pH 7.4, 34 °C; ref [8]; cited from earlier work
Excerpt: page 4: 2. Literature survey Table S1. Survey of experimentally proven membrane penetration of POMs according to a search in Scopus (“polyoxometalate” and “membrane penetration”) up to the submission date of the manuscript.

[2] = Membrane disruption of liposomes by POM alone (CF fluorescence, DLS); type: biochemical
Description: It should be noted that the addition of POMs alone (without cargo) retained the stability of the liposomes in the studied concentration range (up to 100 µM), that is, neither an increase in CF fluorescence nor changes in size distribution as obtained by dynamic light scattering experiments (DLS, see Figure S4, Supporting Information) were observed, which would have signaled membrane rupture. These negative controls allowed us to proceed to the carrier experiments, with added cargo.
DLS experiments of the vesicles were carried out on a Malvern Instruments DTS Nano 2000 Zeta‐Sizer. A POM concentration of 100 µM was chosen as default, since this is the highest concentration at which membrane transport was evaluated. The cargo concentration was set to be same as in the transport experiments, namely 10 µM for heptaarginine, 1 µM for protamine, and 0.1 µM for polyarginine. Note that the POMs themselves, with a size of ≈1 nm, fall below the detection limit (>10 nm) of the DLS instrument.
Figure S3. Transport activity, Y, for polyarginine (0.1 µM) in EYPC[…]CF liposomes as a function of the concentration of the different evaluated POMs. Solid lines correspond to the resulting fit with the Hill equation. Blue squares are data obtained at neutral pH, and red stars data obtained at acidic pH.
Table S4. Membrane transport parametersa) of active POMs at neutralb) and acidicc) pH.
HeptaArgd) Protaminee) PolyArgf) carrier pH Hydrolysis/Stability
Ymax [%]g) EC50h) [µM] E i) Ymax [%] EC50 [µM] E Ymax [%] EC50 [µM] E […]
Figure S5. Transport kinetics (left pannels), dose response curves (middle pannels) for cargo transport, and size distribution (by DLS, right pannels) for [PW12]3‒ (top) and [SiW12]4‒ (bottom), measured with EYPC[…]CF liposomes at pH 7.4, but preserving the POM solution at pH 1.2 before addition. As shown in panel a, the addition of [PW12]3‒ alone gave a fluorescence increase, pointing to membrane disruption, which was confirmed by DLS (panel c). […]

[3] = system: CHO‐K1 cells; test: FITC-Arg8 uptake in live cells, confocal imaging; type: cell-based, Chinese hamster; conditions: carrier 5 µM, 5 min, then FITC-Arg8 5 µM, 30 min, 37 °C, four biological replicates
Description: CHO‐K1 cells were plated into µ‐Slide 8‐well plates (ibidi) at a density of ≈1 × 10^5 cells per well (per 1 mL) and incubated for 24 h in Ham's F‐12 medium containing 10% v/v fetal bovine serum and 1.0% penicillin streptomycin at 37 °C in a 5% CO2 atmosphere. The cells were washed twice with Hank's buffer, incubated for 5 min at 37 °C in Ham's F‐12 medium without phenol red with carrier (5 µM), and subsequently in Ham's F‐12 medium without phenol red with 5 µM FITC‐Arg8 for 30 min at 37 °C. Cells in the absence of carrier were used as control. The cells were washed twice with Hank's buffer containing 100 µg mL^−1 heparin and then washed twice with Ham's F‐12 medium without phenol red. The nuclear staining was performed by incubating the cells with 10 µg mL^−1 Hoechst 33 342 (bis‐benzimide H33342 trihydrochloride) for 10 min at 37 °C. Cells were directly imaged as stated above.

[4] = ref [11]; cited from earlier work
Excerpt: Table 1 Stability of POMs in acidic and neutral pH and membrane transport parameters of different cargo molecules at pH 7.4 | column: Hydrolysis/stability / pH 5.5 ^e); Hydrolysis/stability / pH 7.5 ^f)

| Substance | MIC [1] | Membrane disruption with POM solution kept at pH 1.2 ([2]; POM alone added to liposomes, POM solution kept at pH 1.2, CF fluorescence) | Vesicle lysis at higher concentrations ([2]; higher than 100 µM POM, 10 mM Tris, 107 mM NaCl, pH 7.4) | FITC-Arg8 uptake promoted by carrier [3] | FITC-Arg8 uptake promoted by carrier ([3]; listed as [PW12]3‒) | Hydrolysis/stability pH 7.5 [4] |
| --- | --- | --- | --- | --- | --- | --- |
| K4[α‐P^VV^VW^VI 11O40]·4H2O [[PVW11]^4‒] | 800 µg/mL | – | – | – | – | – |
| Na3[α‐P^VW^VI 12O40]·nH2O [[PW12]^3‒] | – | strong interaction and membrane disruption | led to vesicle lysis | some apparent cellular uptake, but the cell morphology was highly compromised | highly compromised | to [P^VW^VI 9O34]^9‒ ^j) |
